Patent US11950594B2, “Methods and compositions for inhibiting formation of biofilms” (INSTITUTE OF MICROBIOLOGY, CHINESE ACADEMY OF SCIENCES, priority 2019, dated 2024)

How the values were obtained:
[1] = system: PAO1 strains; assay: Bacterial motility assay, swimming plate; format: cell-based, Pseudomonas aeruginosa; details: 37° C., 24 hours
Experimental: PAO1 strains were inoculated into a LBNS agar plate and were cultured overnight at 37° C. Single colonies were respectively inoculated on the surface of swimming plates with and without the coumarin-chalcone compound C9, and cultured at 37° C. for 24 hours. Then, a diameter of a translucent area formed by bacterial swimming on each swimming plate was measured.

[2] = system: Pseudomonas aeruginosa; assay: MIC of antibiotics, Calgary biofilm device; format: cell-based; details: treated with C9 5 mM, versus untreated group
Experimental: MIC and MBEC values of a biofilm formed on a peg of a […] biofilm device (CGM and CBD) treated with the coumarin-chalcone compound C9 were measured according to methods (Innovotech) in MBECTM high throughput experimental operation manual. Biofilm treated with the coumarin-chalcone compound C9 (5 mM) was cultured in an antibiotic-containing medium in a 96-well plate for 24 h, and the MIC value was obtained by measuring the OD600 of planktonic cells of the above samples. To determine the MBEC value, the biofilm treated with the coumarin-chalcone compound C9 (5 mM) was cultured in an antibiotic-containing medium in a 96-well plate for 24 h, then the biofilm was ultrasonically crushed and subsequently incubated at 37° C. for another 24 hours. Biomass of newly formed biofilms was recorded to indicate the corresponding MBEC value.

[3] = system: Pseudomonas aeruginosa PAO1; assay: Growth curve analysis (OD600); format: cell-based; details: 5 mM C9, LB, 37° C., 24 h
Experimental: Pseudomonas aeruginosa PAO1 (optical density OD600≈1.5) was cultured in LB liquid medium overnight, and 1% inoculation amount of the bacterial solution was inoculated into a fresh LB liquid medium. Two equal amounts of bacterial solution with and without 5 mM coumarin-chalcone compound C9 were cultured in a shaking incubator with 200 rpm at 37° C. for 24 h. OD value of the bacterial solution at 600 nm was measured every hour with a spectrophotometer to trace bacterial growth.

[4] = system: Pseudomonas aeruginosa PAO1 biofilm; assay: Biofilm assay (96-well PVC plate, crystal violet); format: cell-based
Experimental: 1% inoculation amount of the bacterial solution cultured overnight was inoculated into 100 μL Jensen liquid medium. Different equal amounts of bacteria solution with C1 to C12, respectively, or without any additional substance were cultured in a 96-well polyvinyl chloride (PVC) plate (costar) overnight at 30° C. without agitation.
The bacterial biomass adsorbed on the 96-well PVC plate was detected by a crystal violet method, and steps were described as below. (1) The non-attached bacteria were removed using a pipettor, then the wells were gently rinsed with normal saline for 3 times. (2) A volume of 120 μL 0.1% crystal violet solution was added to stain the firmly attached bacterial cells in each well, which then staying static at room temperature for 30 min. (3) The PVC plate was taken out, the crystal violet solution was removed with a pipettor, and the non-attached crystal violet solution was washed with normal saline. (4) The crystal violet attached onto the PVC plate was dissolved with 200 μL of 30% acetic acid solution. The OD value of the acetic acid solution in each well was measured at 560 nm with a spectrophotometer.

[5] = system: LasR; assay: QS gene expression, GFP promoter fusion; format: cell-based, Pseudomonas aeruginosa; details: FIGS. 8A to 8D
Text: (§1) The QS system may regulate the formation of biofilm and the expression of multiple virulence factors. Whether the coumarin-chalcone compound C9 influences the QS regulation system was further studied. In the embodiment, a green fluorescent protein (GFP) was used as a reporter gene to examine the influence of the coumarin-chalcone compound C9 on the QS system. In this experiment, the transcription regulator genes (including LasR, RhIR, and PqsR) in three QS systems of Pseudomonas aeruginosa were used to study the gene expression of the QS system. By PCR expansion, promoter regions of the three genes were transcriptionally fused with a promoterless GFP fusion expression vector pProbe-AT, respectively, to construct transcription fusion plasmids that can indicate the expression level of LasR, RhIR, and PqsR genes, which were used as representatives of the expression of the three QS systems.
(§2) The overnight cultured bacterial solution was inoculated into the freshly prepared LB liquid medium to make its OD600 at 0.25, and then cultured for 2 h. Fluorescence was measured at 4 h, 8 h, 12 h, 16 h, 20 h, 24 h, respectively, and the measurement was performed in a 96-well plate. Bacterial growth was monitored by measuring OD600. The gene expression level was normalized by dividing the fluorescence value by the OD600 value of each sample.
(§3) The effects of the coumarin-chalcone compound C9 on the transcription of the three known QS regulators LasR, RhIR, and PqsR were examined by gfp fusion. FIGS. 8A to 8D are schematic diagrams illustrating the inhibition of QS systems in P. aeruginosa by compound C9. The transcription of QS-related genes (LasI, LasR, RhII, RhIR, PqsA, and PqsR) was indicated by the green fluorescent intensity of GFP-tagged promoter region through pPROBE-AT′ plasmid, the data of a blank group, a control group, and an experimental group treated with a coumarin-chalcone compound C9 were presented.

[6] = system: RhIR; assay: QS gene expression, GFP promoter fusion; format: cell-based, Pseudomonas aeruginosa; details: FIGS. 8A to 8D
Text: as §1, §2, §3

[7] = system: PqsR; assay: QS gene expression, GFP promoter fusion; format: cell-based, Pseudomonas aeruginosa; details: FIGS. 8A to 8D
Text: as §1, §2, §3

[8] = system: PAO1 strains; assay: Bacterial motility assay, twitching plate; format: cell-based, Pseudomonas aeruginosa; details: 37° C., 24 hours
Experimental: PAO1 strains were inoculated into a LBNS agar plate and were cultured overnight at 37° C. Single colonies were respectively stab-inoculated to the bottom of twitching plates with and without the coumarin-chalcone compound C9, and cultured at 37° C. for 24 hours. The growth of bacteria at an interface between the agar and the plastic plate was a twitching movement. When 1% TTC was added to the medium, the area that bacteria have visited may turn red, and then the diameter of the red area on each twitching plate was measured.

[9] = Stability at different pH, UV-Vis spectral analysis; format: physicochemical; details: UV absorption, pH range of 3.4 to 8.4
Experimental: UV-Vis spectral analysis was used to study the stability of the coumarin-chalcone compound C9 at a pH range of 3.4 to 8.4. […] After reaching pH=2, KOH (25 mM) was added slowly until the pH reached 12. In this way, a graph of a relationship between the pH and the volume of KOH added was plotted to find an equivalent point and thus the pKa.
In the embodiment, the stability of the coumarin-chalcone compound C9 was studied. FIGS. 10A to 10C are schematic diagrams illustrating the stability of a coumarin-chalcone compound C9. […] The UV absorption spectroscopy in the pH range of 3.4 to 8.4 further supported the stability of the coumarin-chalcone compound C9. First, HCl (25 mM) was continually added to the coumarin-chalcone compound C9 (initial pH=6.9) until the pH reached 3.4 (FIG. 10B), resulting in an increase in the strength of an absorption band at 330 nm. […] The stability of the coumarin-chalcone compound C9 indicated a great potential to be an anti-QS and anti-biofilm drug.

## COc1cccc(/C=C/C(=O)c2cc3ccccc3oc2=O)c1 [Compound C9]
[1]
  flagellate-mediated swimming ability: no effect
[2]
  MIC of a biofilm against ciprofloxacin: significantly lower
  MIC of a biofilm against tobramycin: significantly lower
[3]
  effect on growth of Pseudomonas aeruginosa PAO1 (OD600): no significant effect
[4]; C9 in a range of 1 mM to 5 mM
  formation of Pseudomonas aeruginosa biofilm: significantly inhibited
[4]; FIG. 1, overnight at 30° C., Jensen medium
  reduction of the contents of Pseudomonas aeruginosa PAO1 biofilm: 70%
[4]; Pseudomonas aeruginosa, PAO1, concentration of C9 5 mM, read-out: inhibition rate of biofilm
  inhibition at 5000 µM: 70%
[5]
  transcription of LasR: downregulated
[6]
  transcription of RhIR: downregulated
[7]
  transcription of PqsR: downregulated
[8]
  twitching motility mediated by type IV pili: no effect
[9]
  stability at different pH conditions: stable at different pH conditions
